US9738634B2, “Heterocyclic amide compound and herbicide” (SYNGENTA PARTICIPATIONS AG, priority 2013, dated 2017)

Assays:
Type in all cases: in vivo
directly sown rice = experiment: Test Example 4: foliar treatment, effect on crop; b: directly sown rice; conditions: treatment dosage 315 g/ha
Summary of the method: (§1)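 Seeds are spot-sown into sterilized diluvial soil and covered with about 1.5 cm of soil. After 14 days' greenhouse growth at 25 to 30° C, plants are sprayed on stems and leaves with diluted emulsion at the stated g/ha rate, then scored at 3 weeks.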

barnyard grass [1] = experiment: Test Example 2: weedkilling efficacy, growth period weed treatment in the submerged state; A: barnyard grass; conditions: treatment dosage 252 g/ha
Summary of the method: (§2)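 First, alluvial soil in pots is flooded to 4 cm and mixed seed is sown. Next, plants grow in a greenhouse at 25 to 30° C until the 1-2 leaf stage. Then diluted emulsion is applied onto the water surface at the given g/ha rate, and injury is assessed after 3 weeks.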

Italian ryegrass [2] = experiment: Test Example 4: weedkilling efficacy by foliar treatment; I: Italian ryegrass; conditions: treatment dosage 315 g/ha
Summary of the method: as §1

green foxtail [3] = experiment: Test Example 4: weedkilling efficacy by foliar treatment; E: green foxtail; conditions: treatment dosage 315 g/ha
Summary of the method: as §1

corn [4] = experiment: Test Example 3: soil treatment, effect on crop; c: corn; conditions: treatment dosage 315 g/ha
Summary of the method: (§3)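 Crop and weed responses were judged three weeks after a uniform surface spray of the water-diluted emulsion at the given g/ha rate. Seeds sat beneath about 1.5 cm of sterilized diluvial soil, and boxes stood in a greenhouse at 25 to 30° C.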

catchweed = experiment: Test Example 4: weedkilling efficacy by foliar treatment; O: catchweed; conditions: treatment dosage 315 g/ha
Summary of the method: as §1

wheat [5] = experiment: Test Example 3: soil treatment, effect on crop; e: wheat; conditions: treatment dosage 315 g/ha
Summary of the method: as §3

Indian mallow [6] = experiment: Test Example 3: weedkilling efficacy through soil treatment; K: Indian mallow; conditions: treatment dosage 315 g/ha
Summary of the method: as §3

chickweed [7] = experiment: Test Example 4: weedkilling efficacy by foliar treatment; N: chickweed; conditions: treatment dosage 315 g/ha
Summary of the method: as §1

barnyard grass [8] = experiment: Test Example 1: weedkilling efficacy, preemergent weed treatment in the submerged state; A: barnyard grass; conditions: treatment dosage 252 g/ha
Summary of the method: (§4)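 Emulsion diluted with water to the specified per-hectare dosage is applied onto flood water (4 cm) over alluvial soil on the sowing day, with barnyard grass, bulrush and pondweed seeded and rice (2.5-leaf) transplanted; plants grow at 25–30 °C and are rated at 3 weeks.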

crabgrass [9] = experiment: Test Example 3: weedkilling efficacy through soil treatment; D: crabgrass; conditions: treatment dosage 315 g/ha
Summary of the method: as §3

transplanted rice = experiment: Test Example 1: preemergent weed treatment in the submerged state, effect on crop; a: transplanted rice; conditions: treatment dosage 252 g/ha
Summary of the method: as §4

Indian mallow [10] = experiment: Test Example 4: weedkilling efficacy by foliar treatment; K: Indian mallow; conditions: treatment dosage 315 g/ha
Summary of the method: as §1

bulrush [11] = experiment: Test Example 2: weedkilling efficacy, growth period weed treatment in the submerged state; B: bulrush; conditions: treatment dosage 252 g/ha
Summary of the method: as §2

bulrush [12] = experiment: Test Example 1: weedkilling efficacy, preemergent weed treatment in the submerged state; B: bulrush; conditions: treatment dosage 252 g/ha
Summary of the method: as §4

beet [13] = experiment: Test Example 4: foliar treatment, effect on crop; f: beet; conditions: treatment dosage 315 g/ha
Summary of the method: as §1

corn [14] = experiment: Test Example 4: foliar treatment, effect on crop; c: corn; conditions: treatment dosage 315 g/ha
Summary of the method: as §1

Italian ryegrass [15] = experiment: Test Example 3: weedkilling efficacy through soil treatment; I: Italian ryegrass; conditions: treatment dosage 315 g/ha
Summary of the method: as §3

fig-leafed goosefoot [16] = experiment: Test Example 4: weedkilling efficacy by foliar treatment; M: fig-leafed goosefoot; conditions: treatment dosage 315 g/ha
Summary of the method: as §1

black-grass [17] = experiment: Test Example 4: weedkilling efficacy by foliar treatment; H: black-grass; conditions: treatment dosage 315 g/ha
Summary of the method: as §1

beet [18] = experiment: Test Example 3: soil treatment, effect on crop; f: beet; conditions: treatment dosage 315 g/ha
Summary of the method: as §3

birds-eye speedwell [19] = experiment: Test Example 4: weedkilling efficacy by foliar treatment; p: birds-eye speedwell; conditions: treatment dosage 315 g/ha
Summary of the method: as §1

fig-leafed goosefoot [20] = experiment: Test Example 3: weedkilling efficacy through soil treatment; M: fig-leafed goosefoot; conditions: treatment dosage 315 g/ha
Summary of the method: as §3

soybean [21] = experiment: Test Example 3: soil treatment, effect on crop; d: soybean; conditions: treatment dosage 315 g/ha
Summary of the method: as §3

oval-leafed pondweed [22] = experiment: Test Example 2: weedkilling efficacy, growth period weed treatment in the submerged state; C: oval-leafed pondweed; conditions: treatment dosage 252 g/ha
Summary of the method: as §2

wild oat [23] = experiment: Test Example 3: weedkilling efficacy through soil treatment; G: wild oat; conditions: treatment dosage 315 g/ha
Summary of the method: as §3

oval-leafed pondweed [24] = experiment: Test Example 1: weedkilling efficacy, preemergent weed treatment in the submerged state; C: oval-leafed pondweed; conditions: treatment dosage 252 g/ha
Summary of the method: as §4

crabgrass [25] = experiment: Test Example 4: weedkilling efficacy by foliar treatment; D: crabgrass; conditions: treatment dosage 315 g/ha
Summary of the method: as §1

redroot pigweed [26] = experiment: Test Example 3: weedkilling efficacy through soil treatment; L: redroot pigweed; conditions: treatment dosage 315 g/ha
Summary of the method: as §3

green foxtail [27] = experiment: Test Example 3: weedkilling efficacy through soil treatment; E: green foxtail; conditions: treatment dosage 315 g/ha
Summary of the method: as §3

chickweed [28] = experiment: Test Example 3: weedkilling efficacy through soil treatment; N: chickweed; conditions: treatment dosage 315 g/ha
Summary of the method: as §3

black-grass [29] = experiment: Test Example 3: weedkilling efficacy through soil treatment; H: black-grass; conditions: treatment dosage 315 g/ha
Summary of the method: as §3

soybean [30] = experiment: Test Example 4: foliar treatment, effect on crop; d: soybean; conditions: treatment dosage 315 g/ha
Summary of the method: as §1

wild oat [31] = experiment: Test Example 4: weedkilling efficacy by foliar treatment; G: wild oat; conditions: treatment dosage 315 g/ha
Summary of the method: as §1

redroot pigweed [32] = experiment: Test Example 4: weedkilling efficacy by foliar treatment; L: redroot pigweed; conditions: treatment dosage 315 g/ha
Summary of the method: as §1

wheat [33] = experiment: Test Example 4: foliar treatment, effect on crop; e: wheat; conditions: treatment dosage 315 g/ha
Summary of the method: as §1

birds-eye speedwell [34] = experiment: Test Example 3: weedkilling efficacy through soil treatment; p: birds-eye speedwell; conditions: treatment dosage 315 g/ha
Summary of the method: as §3

CC1=C(c2ccccc2)C(=O)N(C(C)(C)C(=O)Nc2cncc(Cl)c2)CO1 [B-3-02]
b (directly sown rice) effect on crop grade (directly sown rice): 5 (weed kill ratio 90% or more, (practically complete withering))
A (barnyard grass) weedkilling efficacy grade (barnyard grass [1]): 4 (weed kill ratio 70% or more, less than 90%)
I (Italian ryegrass) weedkilling efficacy grade (Italian ryegrass [2]): 5 (weed kill ratio 90% or more, (practically complete withering))
E (green foxtail) weedkilling efficacy grade (green foxtail [3]): 5 (weed kill ratio 90% or more, (practically complete withering))
c (corn) effect on crop grade (corn [4]): 3 (weed kill ratio 40% or more, less than 70%)
O (catchweed) weedkilling efficacy grade (catchweed): 4 (weed kill ratio 70% or more, less than 90%)
e (wheat) effect on crop grade (wheat [5]): 5 (weed kill ratio 90% or more, (practically complete withering))
K (Indian mallow) weedkilling efficacy grade (Indian mallow [6]): 3 (weed kill ratio 40% or more, less than 70%)
N (chickweed) weedkilling efficacy grade (chickweed [7]): 0 (weed kill ratio 5% or less (practically no effect))
A (barnyard grass) weedkilling efficacy grade (barnyard grass [8]): 5 (weed kill ratio 90% or more, (practically complete withering))
D (crabgrass) weedkilling efficacy grade (crabgrass [9]): 5 (weed kill ratio 90% or more, (practically complete withering))
a (transplanted rice) effect on crop grade (transplanted rice): 3 (weed kill ratio 40% or more, less than 70%)
K (Indian mallow) weedkilling efficacy grade (Indian mallow [10]): 4 (weed kill ratio 70% or more, less than 90%)
B (bulrush) weedkilling efficacy grade (bulrush [11]): 5 (weed kill ratio 90% or more, (practically complete withering))
B (bulrush) weedkilling efficacy grade (bulrush [12]): 5 (weed kill ratio 90% or more, (practically complete withering))
f (beet) effect on crop grade (beet [13]): 3 (weed kill ratio 40% or more, less than 70%)
c (corn) effect on crop grade (corn [14]): 4 (weed kill ratio 70% or more, less than 90%)
I (Italian ryegrass) weedkilling efficacy grade (Italian ryegrass [15]): 5 (weed kill ratio 90% or more, (practically complete withering))
M (fig-leafed goosefoot) weedkilling efficacy grade (fig-leafed goosefoot [16]): 2 (weed kill ratio 20% or more, less than 40%)
H (black-grass) weedkilling efficacy grade (black-grass [17]): 5 (weed kill ratio 90% or more, (practically complete withering))
f (beet) effect on crop grade (beet [18]): 4 (weed kill ratio 70% or more, less than 90%)
P (birds-eye speedwell) weedkilling efficacy grade (birds-eye speedwell [19]): 3 (weed kill ratio 40% or more, less than 70%)
M (fig-leafed goosefoot) weedkilling efficacy grade (fig-leafed goosefoot [20]): 4 (weed kill ratio 70% or more, less than 90%)
d (soybean) effect on crop grade (soybean [21]): 0 (weed kill ratio 5% or less (practically no effect))
C (oval-leafed pondweed) weedkilling efficacy grade (oval-leafed pondweed [22]): 5 (weed kill ratio 90% or more, (practically complete withering))
G (wild oat) weedkilling efficacy grade (wild oat [23]): 5 (weed kill ratio 90% or more, (practically complete withering))
C (oval-leafed pondweed) weedkilling efficacy grade (oval-leafed pondweed [24]): 5 (weed kill ratio 90% or more, (practically complete withering))
D (crabgrass) weedkilling efficacy grade (crabgrass [25]): 5 (weed kill ratio 90% or more, (practically complete withering))
L (redroot pigweed) weedkilling efficacy grade (redroot pigweed [26]): 5 (weed kill ratio 90% or more, (practically complete withering))
E (green foxtail) weedkilling efficacy grade (green foxtail [27]): 5 (weed kill ratio 90% or more, (practically complete withering))
N (chickweed) weedkilling efficacy grade (chickweed [28]): 4 (weed kill ratio 70% or more, less than 90%)
H (black-grass) weedkilling efficacy grade (black-grass [29]): 5 (weed kill ratio 90% or more, (practically complete withering))
d (soybean) effect on crop grade (soybean [30]): 4 (weed kill ratio 70% or more, less than 90%)
G (wild oat) weedkilling efficacy grade (wild oat [31]): 5 (weed kill ratio 90% or more, (practically complete withering))
L (redroot pigweed) weedkilling efficacy grade (redroot pigweed [32]): 3 (weed kill ratio 40% or more, less than 70%)
e (wheat) effect on crop grade (wheat [33]): 3 (weed kill ratio 40% or more, less than 70%)

CC1=C(c2ccccc2)C(=O)N(C(C)(C)C(=O)Nc2ccnc(F)c2)CO1 [B-4-02]
b (directly sown rice) effect on crop grade (directly sown rice): 5 (weed kill ratio 90% or more, (practically complete withering))
A (barnyard grass) weedkilling efficacy grade (barnyard grass [1]): 3 (weed kill ratio 40% or more, less than 70%)
P (birds-eye speedwell) weedkilling efficacy grade (birds-eye speedwell [34]): 5 (weed kill ratio 90% or more, (practically complete withering))
I (Italian ryegrass) weedkilling efficacy grade (Italian ryegrass [2]): 5 (weed kill ratio 90% or more, (practically complete withering))
E (green foxtail) weedkilling efficacy grade (green foxtail [3]): 5 (weed kill ratio 90% or more, (practically complete withering))
c (corn) effect on crop grade (corn [4]): 4 (weed kill ratio 70% or more, less than 90%)
O (catchweed) weedkilling efficacy grade (catchweed): 5 (weed kill ratio 90% or more, (practically complete withering))
e (wheat) effect on crop grade (wheat [5]): 1 (weed kill ratio 5% or more, less than 20%)
K (Indian mallow) weedkilling efficacy grade (Indian mallow [6]): 4 (weed kill ratio 70% or more, less than 90%)
N (chickweed) weedkilling efficacy grade (chickweed [7]): 3 (weed kill ratio 40% or more, less than 70%)
A (barnyard grass) weedkilling efficacy grade (barnyard grass [8]): 5 (weed kill ratio 90% or more, (practically complete withering))
D (crabgrass) weedkilling efficacy grade (crabgrass [9]): 5 (weed kill ratio 90% or more, (practically complete withering))
a (transplanted rice) effect on crop grade (transplanted rice): 3 (weed kill ratio 40% or more, less than 70%)
K (Indian mallow) weedkilling efficacy grade (Indian mallow [10]): 3 (weed kill ratio 40% or more, less than 70%)
B (bulrush) weedkilling efficacy grade (bulrush [11]): 5 (weed kill ratio 90% or more, (practically complete withering))
B (bulrush) weedkilling efficacy grade (bulrush [12]): 5 (weed kill ratio 90% or more, (practically complete withering))
c (corn) effect on crop grade (corn [14]): 4 (weed kill ratio 70% or more, less than 90%)
I (Italian ryegrass) weedkilling efficacy grade (Italian ryegrass [15]): 5 (weed kill ratio 90% or more, (practically complete withering))
M (fig-leafed goosefoot) weedkilling efficacy grade (fig-leafed goosefoot [16]): 4 (weed kill ratio 70% or more, less than 90%)
H (black-grass) weedkilling efficacy grade (black-grass [17]): 5 (weed kill ratio 90% or more, (practically complete withering))
f (beet) effect on crop grade (beet [18]): 3 (weed kill ratio 40% or more, less than 70%)
P (birds-eye speedwell) weedkilling efficacy grade (birds-eye speedwell [19]): 5 (weed kill ratio 90% or more, (practically complete withering))
M (fig-leafed goosefoot) weedkilling efficacy grade (fig-leafed goosefoot [20]): 5 (weed kill ratio 90% or more, (practically complete withering))
d (soybean) effect on crop grade (soybean [21]): 1 (weed kill ratio 5% or more, less than 20%)
C (oval-leafed pondweed) weedkilling efficacy grade (oval-leafed pondweed [22]): 4 (weed kill ratio 70% or more, less than 90%)
G (wild oat) weedkilling efficacy grade (wild oat [23]): 5 (weed kill ratio 90% or more, (practically complete withering))
C (oval-leafed pondweed) weedkilling efficacy grade (oval-leafed pondweed [24]): 5 (weed kill ratio 90% or more, (practically complete withering))
D (crabgrass) weedkilling efficacy grade (crabgrass [25]): 5 (weed kill ratio 90% or more, (practically complete withering))
L (redroot pigweed) weedkilling efficacy grade (redroot pigweed [26]): 5 (weed kill ratio 90% or more, (practically complete withering))
E (green foxtail) weedkilling efficacy grade (green foxtail [27]): 5 (weed kill ratio 90% or more, (practically complete withering))
N (chickweed) weedkilling efficacy grade (chickweed [28]): 4 (weed kill ratio 70% or more, less than 90%)
H (black-grass) weedkilling efficacy grade (black-grass [29]): 5 (weed kill ratio 90% or more, (practically complete withering))
d (soybean) effect on crop grade (soybean [30]): 4 (weed kill ratio 70% or more, less than 90%)
G (wild oat) weedkilling efficacy grade (wild oat [31]): 5 (weed kill ratio 90% or more, (practically complete withering))
L (redroot pigweed) weedkilling efficacy grade (redroot pigweed [32]): 4 (weed kill ratio 70% or more, less than 90%)
e (wheat) effect on crop grade (wheat [33]): 0 (weed kill ratio 5% or less (practically no effect))
